Source: patent US5696146A, “Indole derivatives as steroid 5α-reductase inhibitors” (Pfizer Inc., priority 1993, dated 1997)

Experiments:
[1] = target: T1, human testosterone 5α-reductase-1 (Homo sapiens, UniProt P18405); test: in vitro inhibition of cloned human testosterone 5α-reductase-1 (test method 4); format: biochemical
T1 construct: expressed in transfected cells
T1 sequence (P18405 1-259): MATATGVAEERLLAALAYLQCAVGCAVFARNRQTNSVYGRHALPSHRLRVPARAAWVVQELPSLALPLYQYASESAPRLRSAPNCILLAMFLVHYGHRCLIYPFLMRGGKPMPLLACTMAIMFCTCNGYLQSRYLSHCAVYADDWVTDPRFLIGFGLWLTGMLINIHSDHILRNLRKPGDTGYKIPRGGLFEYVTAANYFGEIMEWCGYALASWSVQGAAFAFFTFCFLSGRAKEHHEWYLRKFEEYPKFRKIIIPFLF
Source text: (4) The compounds of the formula (I) may be tested in vitro for human testosterone 5α-reductase-1 inhibitory activity using cloned human testosterone 5α-reductase-1 according to the procedure described in Proc. Natl. Acad. Sci. USA, 87, 3640 (1990).
(§1) The data were obtained using test method (4) set out on page 27 of the specification and test method (2) described on pages 24 to 26 of the specification, respectively.

[2] = target: T2, human testosterone 5α-reductase-2 (Homo sapiens, UniProt P31213); test: in vitro inhibition of human testosterone 5α-reductase-2 from hyperplastic human prostate tissue (test method 2); format: biochemical; conditions: hyperplastic human prostate particulate, pH 5.2, 37° C., 30 minutes
T2 construct: using tissue from hyperplastic human prostates; from tissue; host or cells: hyperplastic human prostate, 100,000G particulate preparation
T2 sequence (P31213 1-254): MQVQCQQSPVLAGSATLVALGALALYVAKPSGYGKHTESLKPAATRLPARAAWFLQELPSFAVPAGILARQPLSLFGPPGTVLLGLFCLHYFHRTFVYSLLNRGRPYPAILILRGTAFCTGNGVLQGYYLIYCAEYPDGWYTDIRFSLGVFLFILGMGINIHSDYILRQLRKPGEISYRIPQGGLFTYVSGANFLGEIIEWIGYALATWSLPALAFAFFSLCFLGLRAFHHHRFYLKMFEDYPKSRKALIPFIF
Protocol: (2) The compounds of the formula (I) may be tested for their potency in inhibiting human testosterone 5α-reductase-2 using tissue from hyperplastic human prostates. In determining inhibitory potency against human prostatic 5α-reductase-2 the following procedure was employed:
Frozen human prostate tissue was pulverised in liquid nitrogen using a steel mortar and pestle. The powdered tissue was homogenised in 4 volumes of Buffer A (20 mM sodium phosphate, pH 6.5, containing 0.32M sucrose, 1 mM dithiothreitol and 50 μM NADPH) with an Ultra-Turrax homogeniser (Janke and Kunkel GmBH & Co., Staufen i. BR., Germany). The homogenate was centrifuged at 500G for 5 minutes to remove large particles of tissue, and the supernatant was then centrifuged at 100,000G for 1 hour. The resulting pellet was dispersed in Buffer A (1 ml per g of prostate tissue originally used) with the Ultra-Turrax homogeniser. This particulate preparation was then filtered through 2 layers of cheesecloth and the filtrate was stored as 2ml samples at -70° C.
The following components, dissolved in Buffer B (25 mM citrate phosphate buffer, pH 5.2), were added to a test tube: 100 μl of [^3 H]-testosterone (1 μCi, 1 nmol; Du Pont, NEN Research Products, Stevenage, U.K.), 100 μl of NADPH regeneration system (5 mM NADPH, 50 mM glucose 6-phosphate, 5 units/ml glucose 6-phosphate dehydrogenase), a compound of the formula (I) dissolved in 5 μl of dimethyl sulphoxide, and Buffer B to give a final reaction volume of 1 ml. The mixture was warmed to 37° C. and the reaction started by addition of an aliquot of prostate particulate suspension. The reaction mixture was incubated at 37° C. for 30 minutes and was then quenched by addition, with vigorous mixing, of 2 ml of ethyl acetate containing 20 μg each of testosterone and 5α-dihydrotestosterone as carriers. The aqueous and organic layers were separated by centrifugation at 2000 G for 10 minutes. The organic layer was transferred to a second test tube and evaporated to dryness under nitrogen. The residue was dissolved in 50-80μl of absolute ethanol, spotted onto a silica gel 60 F254 TLC plate (E. Merck, Darmstadt, Germany) and developed in dichloromethane:acetone (185:15).
The radiochemical content in the bands of the substrate (testosterone) and the product (5α-dihydrotestosterone) were determined with a RITA Radio TLC Analyser (Raytest Instruments Ltd., Sheffield, U.K.). The percent of recovered radiolabel converted to 5α-dihydrotestosterone was calculated and used to determine enzyme activity. All incubations were conducted so that no more than 15% of substrate (testosterone) was converted to product.
The experimentally obtained data for a range of inhibitor concentrations was computer fitted to a sigmoidal dose-response curve and concentrations of compound giving 50% inhibition of 5α-reductase activity (IC50 's) were calculated using a SIGFIT program (De Lean, A., Munson, P. J. and Rodbard, D., American Journal of Physiology, 235, E97 (1978)).
as §1

| SMILES | IC50 [1] [nM] | IC50 [2] [nM] |
| --- | --- | --- |
| CCCCCC1(c2ccc(CCC)cc2)Oc2ccc(CC(=O)c3cn(CCCC(=O)O)c4ccccc34)cc2O1 (stereo not drawn) [Example 4] | 11 | 16.9 |
| CCCCC1(c2ccc(CCC)cc2)Oc2ccc(CC(=O)c3cn(CCCC(=O)O)c4ccccc34)cc2O1 (stereo not drawn) [Example 1, 4-(3-[(2-n-Butyl-2-[4-n-propyl]phenyl-1,3-benzodioxolan-5-yl)methylcarbonyl]indol-1-yl)butanoic acid] | 15.5 | 6.9 |
| CCCCC1(c2ccc(CC)cc2)Oc2ccc(CC(=O)c3cn(CCCC(=O)O)c4ccccc34)cc2O1 (stereo not drawn) [Example 5, 4-(3-[(2-n-butyl-2-[4-ethyl]phenyl-1,3-benzodioxolan-5-yl)methylcarbonyl]indol-1-yl)butanoic acid] | 11 | 4.5 |
| CCCCC1(c2ccc(CCC)cc2)Oc2ccc(CC(=O)c3cn(CCCC(=O)O)c4ccccc34)cc2O1 (stereo not drawn) [Example 6] | 17.5 | 2.3 |
| CCCCCCC1(c2ccc(CCC)cc2)Oc2ccc(CC(=O)c3cn(CCCC(=O)O)c4ccccc34)cc2O1 (stereo not drawn) [Example 2] | 24 | 16.7 |
| CCCc1ccc(C2(CCC)Oc3ccc(CC(=O)c4cn(CCCC(=O)O)c5ccccc45)cc3O2)cc1 (stereo not drawn) [Example 3] | 14 | 13.3 |
